Laboratory results published in patent publication US20230145342A1, “COMBINATORY TREATMENT” (AALTO UNIVERSITY FOUNDATION SR, priority 2020, published 2023).
Entries after “also recorded” stand apart in the source; their conditions may differ.

Assays:
[1] = Dye displacement (competitive-binding) assay between P[5]a host and HSL guests; details: HSL guest titrated against P[5]a host with bound fluorescent dye
Description: The addition of a HSL “[…]” displaces the […] from the cavity again, resulting in a shift back to 468 nm.
To measure the binding affinity between the macrocyclic “Host” P[5]a and different homoserine lactone “guests” a competitive-binding assay was used. In this case, a “guest” HSL solution is titrated against a solution of the P[5]a “host”, which has a fluorescent dye bound in its cavity, […], which has a known affinity for the P[5]a. The ratio of P[5]a to HSL enables calculation of the affinity.

[2] = test system: MDR-Acinetobacter baumannii 5542; assay: Resistance profile of strain (Table 3); format: cell-based; details: strain 5542 A. baumannii
[3] = test system: Pseudomonas aeruginosa 2798 (ATCC 2798); assay: Resistance profile of strain (Table 3); format: cell-based; details: strain 2798 (ATCC 2798)
Description: (§1) The effect of P[5]a on the penetration and efficacy of coadministered antibiotics Amikacin (a), Cefepime (b), Ceftazidime (c) and Meropenem (d) in MDR resistant clinical isolates were studied.

[4] = test system: Pseudomonas aeruginosa 5542; assay: Resistance profile of strain (Table 3); format: cell-based; details: strain 5542 P. aeruginosa
Description: as §1

[5] = test system: Pseudomonas aeruginosa 5550; assay: Resistance profile of strain (Table 3); format: cell-based; details: strain 5550
Description: as §1

[6] = test system: Pseudomonas aeruginosa 5832; assay: Resistance profile of strain (Table 3); format: cell-based; details: strain 5832
Description: as §1

[7] = test system: Pseudomonas aeruginosa 5834; assay: Resistance profile of strain (Table 3); format: cell-based; details: strain 5834
Description: as §1

[8] = test system: Pseudomonas aeruginosa 5827; assay: Resistance profile of strain (Table 3); format: cell-based; details: strain 5827
[9] = test system: Pseudomonas aeruginosa 5539; assay: Resistance profile of strain (Table 3); format: cell-based; details: strain 5539
P. aeruginosa PAO1 = assay: Antibiotic resistance buildup, daily MIC over 14 consecutive days; format: cell-based, Pseudomonas aeruginosa; details: coadministration of P[5]a with the antibiotic, 14-day period
Description: Area below the yellow line means that the bacterium is classified as susceptible to the antibiotic. The area in between yellow and red means that the bacterium is intermediate susceptible to the antibiotic. The area above the red line means that the bacterium is classified as resistant to the antibiotic (According to the “Performance Standards for Antimicrobial Susceptibility Testing”, which is maintained by the Clinical and Laboratory Standards Institute).
Because of this, a combined administration of P[5]a with a variety of antibiotics was tested. MIC values with two different antibiotics, meropenem and cefepime (FIG. 2) were tested, over a period of 14 consecutive days (which more than surpasses the length of normal treatments, 7-10 days), when administered together with and without 2.5 mM P[5]a.
In this experiment, the minimum inhibitory concentration MIC was analyzed daily for 14 consecutive days, and the highest MIC values (so the highest concentration of antibiotic where the bacteria still grew) was used for the next day. This way, the buildup of resistance over time can be monitored. In FIG. 2, the area below the yellow line means that the bacterium is classified as susceptible to the antibiotic, the area in between yellow and red means that the bacterium is intermediate susceptible to the antibiotic and the area above the red line means that the bacterium is classified as resistant to the antibiotic (According to the “Performance Standards for Antimicrobial Susceptibility Testing”, which is maintained by the Clinical and Laboratory Standards Institute).
The effect of P[5]a on encountering resistance development in a pathogenic Gram-negative bacterium, Pserudomonas aeruginosa, strain PA01 was studied over 14-day period. The development of resistance over 14 continuous days by the pathogen PAO1 towards treatment with four clinically relevant antibiotics (meropenem, cefepime, aztreonam and tobramycin) and P[5]a was compared. […] In all antibiotic treatments, reduced susceptibility was observed from day 4 onwards, with complete resistance to all treatments after 12 days.
The effect of P[5]a on the enhancement of the penetration of coadministered antibiotics having intracellular targets (aztreonam, cefepime, meropenem and tobramycin) was studied over 14-day period in a pathogenic Gram-negative bacterium, Pserudomonas aeruginosa, strain PA01. […] MIC values were categorized in three groups according to the Clinical and Laboratory Standards Institute: susceptible, intermediate susceptible and resistant.

## CCCCCCCCCCCC(O)CC(=O)N[C@@H]1CCOC1=O (stereo partly shown) [3-OH—C14 HSL]
[1]
  displacement of dye from P[5]a cavity (binding affinity): high binding affinity; also recorded: strong displacement

## CCCC(=O)CC(=O)N[C@H]1CCOC1=O [3-Oxo-C6]
[1]
  displacement of dye from P[5]a cavity (binding affinity): Poor displacement

## CCCCCC(=O)CC(=O)N[C@H]1CCOC1=O [3-Oxo-C8 HSL]
[1]
  displacement of dye from P[5]a cavity (binding affinity): Medium displacement

## CCCCCCCCCC(=O)CC(=O)NC1CCOC1=O (stereo not shown) [3-Oxo-C12 HSL]
[1]
  displacement of dye from P[5]a cavity (binding affinity): high binding affinity; also recorded: strong displacement

## CC1(C)S[C@@H]2[C@H](NC(=O)[C@H](N)c3ccccc3)C(=O)N2[C@H]1C(=O)O [Ampicillin]
[2]
  Antibiotic resistance (category): Resistant to Amikacin, Amoxicillin-clavulanate, Ampicillin,

## CC[C@H]1OC(=O)[C@H](C)[C@@H](O[C@H]2C[C@@](C)(OC)[C@@H](O)[C@H](C)O2)[C@H](C)[C@@H](O[C@@H]2O[C@H](C)C[C@H](N(C)C)[C@H]2O)[C@](C)(O)C[C@@H](C)CN(C)[C@H](C)[C@@H](O)[C@]1(C)O [Azithromycin, azithromycin]
[2]
  Antibiotic resistance (category): Resistant to Amikacin, Amoxicillin-clavulanate, Ampicillin,

## CCCC(=O)N[C@H]1CCOC1=O [C4]
[1]
  displacement of dye from P[5]a cavity (binding affinity): Poor displacement

## CC1=C(C(=O)O)N2C(=O)[C@@H](NC(=O)[C@H](N)c3ccccc3)[C@H]2SC1 [Cefalexin]
[2]
  Antibiotic resistance (category): Resistant to Amikacin, Amoxicillin-clavulanate, Ampicillin,

## C[C@@H](O)[C@H]1C(=O)N2C(C(=O)O)=C(S[C@@H]3CN[C@H](CNS(N)(=O)=O)C3)[C@H](C)[C@H]12 [Doripenem, doripenem]
[3]
  Antibiotic resistance (category): Aztreonam & Cefepime, Resistant to Ceftazidime, Cirpofloxacin,

## C[C@@H](O)[C@H]1C(=O)N2C(C(=O)O)=C(S[C@@H]3CN[C@H](C(=O)Nc4cccc(C(=O)O)c4)C3)[C@H](C)[C@H]12 [Ertapenem, ertapenem]
[2]
  Antibiotic resistance (category): Resistant to Amikacin, Amoxicillin-clavulanate, Ampicillin,

## Cc1cc(NS(=O)(=O)c2ccc(N)cc2)no1 [Sulfamethoxazole]
[2]
  Antibiotic resistance (category): Resistant to Amikacin, Amoxicillin-clavulanate, Ampicillin,

## CN(C)c1cc(NC(=O)CNC(C)(C)C)c(O)c2c1C[C@H]1C[C@H]3[C@H](N(C)C)C(O)=C(C(N)=O)C(=O)[C@@]3(O)C(O)=C1C2=O [Tigecycline]
[2]
  Antibiotic resistance (category): Resistant to Amikacin, Amoxicillin-clavulanate, Ampicillin,

## NCC[C@H](O)C(=O)N[C@@H]1C[C@H](N)[C@@H](O[C@H]2O[C@H](CN)[C@@H](O)[C@H](O)[C@H]2O)[C@H](O)[C@H]1O[C@H]1O[C@H](CO)[C@@H](O)[C@H](N)[C@H]1O [amikacin, Amikacin]
[2]
  Antibiotic resistance (category): Resistant to Amikacin, Amoxicillin-clavulanate, Ampicillin,
[3]
  Antibiotic resistance (category): Susceptible
[4]
  Antibiotic resistance (category): intermediate susceptible
  Antibiotic resistance (value given with the category, MIC): 16 µg
[5]
  Antibiotic resistance (category): Intermediate susceptible
  Antibiotic resistance (value given with the category, MIC): 32 µg
[6]
  Antibiotic resistance (category): Intermediate susceptible
  Antibiotic resistance (value given with the category, MIC): 16 µg
[7]
  Antibiotic resistance (category): intermediate susceptible
  Antibiotic resistance (value given with the category, MIC): 16 µg
[8]
  Antibiotic resistance (category): Intermediate susceptible
  Antibiotic resistance (value given with the category, MIC): 32 µg
[9]
  Antibiotic resistance (category): Susceptible
  Antibiotic resistance (value given with the category, MIC): 8 µg

## C[C@H]1[C@H](NC(=O)/C(=N\OC(C)(C)C(=O)O)c2csc(N)n2)C(=O)N1S(=O)(=O)O [aztreonam]
P. aeruginosa PAO1
  development of resistance by the pathogen to the respective antibiotic: greatly slowed
[3]
  Antibiotic resistance (category): Intermediate susceptible

## CO/N=C(\C(=O)N[C@@H]1C(=O)N2C(C(=O)O)=C(COC(N)=O)CS[C@H]12)c1ccco1 [cefurixome]
[9]
  Antibiotic resistance (category): resistant

## C[C@@H](O)[C@H]1C(=O)N2C(C(=O)O)=C(S[C@@H]3CN[C@H](C(=O)N(C)C)C3)[C@H](C)[C@H]12 [meropenem, Meropenem]
P. aeruginosa PAO1
  development of resistance by the pathogen to the respective antibiotic: greatly slowed
[2]
  Antibiotic resistance (category): Resistant to Amikacin, Amoxicillin-clavulanate, Ampicillin,
[3]
  Antibiotic resistance (category): Aztreonam & Cefepime, Resistant to Ceftazidime, Cirpofloxacin,
[4]
  Antibiotic resistance (category): resistant
  Antibiotic resistance (value given with the category, MIC): 8 µg
[5]
  Antibiotic resistance (category): resistant
  Antibiotic resistance (value given with the category, MIC): 8 µg
[6]
  Antibiotic resistance (category): resistant
  Antibiotic resistance (value given with the category, MIC): 8 µg
[7]
  Antibiotic resistance (category): resistant
  Antibiotic resistance (value given with the category, MIC): cefepime 64 ug, ceftazidime 64 ug and meropenem 64 ug
[8]
  Antibiotic resistance (category): resistant
  Antibiotic resistance (value given with the category, MIC): 16 µg
[9]
  Antibiotic resistance (category): resistant
  Antibiotic resistance (value given with the category, MIC): 8 µg

## NC[C@H]1O[C@H](O[C@H]2[C@H](O)[C@@H](O[C@H]3O[C@H](CO)[C@@H](O)[C@H](N)[C@H]3O)[C@H](N)C[C@@H]2N)[C@H](N)C[C@@H]1O [tobramycin]
P. aeruginosa PAO1
  development of resistance by the pathogen to the respective antibiotic: greatly slowed
[2]
  Antibiotic resistance (category): Resistant to Amikacin, Amoxicillin-clavulanate, Ampicillin,
[9]
  Antibiotic resistance (category): resistant

## Amoxicillin-clavulanate
[2]
  Antibiotic resistance (category): Resistant to Amikacin, Amoxicillin-clavulanate, Ampicillin,

## Colistin
[3]
  Antibiotic resistance (category): Susceptible

## Piperacillin-tazobactam
[2]
  Antibiotic resistance (category): Resistant to Amikacin, Amoxicillin-clavulanate, Ampicillin,
[3]
  Antibiotic resistance (category): Aztreonam & Cefepime, Resistant to Ceftazidime, Cirpofloxacin,
[9]
  Antibiotic resistance (category): resistant
